The results in this text go back to ChEMBL document CHEMBL3091353, “Trisubstituted and tetrasubstituted pyrazolines as a novel class of cell-growth inhibitors in tumor cells with wild type p53” (Bioorg Med Chem, 2013).

Calls of active or inactive are those of the source. No cut-off for these calls is given here.

The nature of data set [1]: Cytotoxicity against human H1299 cells after 72 hrs by CellTiterGlo luciferase-based assay. In kind it is functional, cell-based. The following applies: NCI-H1299, 72 h. (In general: In ATP-based viability assays light output follows the ATP content of the culture.)
Data set [2] concerns the target E3 ubiquitin-protein ligase Mdm2 (Homo sapiens) (UniProt Q00987). Nature of the data set: Displacement of carboxyfluorescein-labeled LTFEHYWAQLTS-FAM from MDM2 (unknown origin) (2 to 125) at 0.005 to 1 mM by fluorescence anisotropic analysis.
In data set [3] the test system is HCT-116. Nature of the data set: Cytotoxicity against human HCT116 cells after 72 hrs by CellTiterGlo luciferase-based assay. Format: functional, cell-based. The following applies: HCT-116, 72 h.
In data set [4] the target is E3 ubiquitin-protein ligase Mdm2 (Homo sapiens) (UniProt Q00987). Kind of data set: Displacement of carboxyfluorescein-labeled LTFEHYWAQLTS-FAM from human MDM2 (16 to 116) expressed in Escherichia coli C41 at 0.005 to 1 mM by fluorescence anisotropic analysis.
E3 ubiquitin-protein ligase Mdm2 (Homo sapiens), sequence (Q00987 whole entry, looked up): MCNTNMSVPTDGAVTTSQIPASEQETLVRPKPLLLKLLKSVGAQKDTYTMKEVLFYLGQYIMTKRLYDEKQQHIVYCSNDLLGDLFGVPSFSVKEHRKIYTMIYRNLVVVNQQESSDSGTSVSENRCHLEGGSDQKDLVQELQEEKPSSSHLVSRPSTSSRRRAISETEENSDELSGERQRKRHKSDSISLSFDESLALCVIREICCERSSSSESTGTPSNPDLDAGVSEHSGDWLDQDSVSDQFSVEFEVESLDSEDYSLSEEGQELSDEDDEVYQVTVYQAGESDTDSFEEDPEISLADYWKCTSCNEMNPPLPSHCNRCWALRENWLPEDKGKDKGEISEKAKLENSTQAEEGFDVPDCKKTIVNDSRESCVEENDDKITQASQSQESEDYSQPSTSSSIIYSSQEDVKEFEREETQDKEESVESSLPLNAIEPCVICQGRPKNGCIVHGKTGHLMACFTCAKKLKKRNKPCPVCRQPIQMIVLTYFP
For data set [5], the target named is Cellular tumor antigen p53 (Homo sapiens) (UniProt P04637). Kind of data set: Induction of p53 translocation in human HCT116 cells assessed as protein nuclear to cytosolic ratio at 30 uM after 20 hrs by immunofluorescence analysis. Format: cell-based. The following applies: HCT-116.
Cellular tumor antigen p53 (Homo sapiens), sequence (P04637 whole entry, looked up): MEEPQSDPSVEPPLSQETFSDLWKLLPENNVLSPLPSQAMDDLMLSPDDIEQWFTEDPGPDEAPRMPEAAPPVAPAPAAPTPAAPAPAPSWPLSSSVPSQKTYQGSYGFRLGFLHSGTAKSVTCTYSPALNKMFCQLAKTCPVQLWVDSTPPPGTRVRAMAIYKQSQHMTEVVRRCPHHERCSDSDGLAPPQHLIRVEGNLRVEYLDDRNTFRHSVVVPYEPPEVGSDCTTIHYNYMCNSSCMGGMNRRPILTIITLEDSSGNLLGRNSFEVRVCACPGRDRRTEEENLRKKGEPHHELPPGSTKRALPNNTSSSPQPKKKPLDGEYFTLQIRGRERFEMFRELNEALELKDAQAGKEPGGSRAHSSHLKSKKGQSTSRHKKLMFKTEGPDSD
A short description of data set [6]: Ratio of IC50 for human H1299 cells to IC50 for human HCT116 cells. The following applies: H1299 cells and HCT116 cells.
Data set [7] deals with HCT-116. Kind of data set: Cytotoxicity against human HCT116 cells at 20 uM after 72 hrs by CellTiterGlo luciferase-based assay. Format: functional, cell-based.
The next data set concerns NCI-H1299. Kind of data set: Cytotoxicity against human H1299 cells at 20 uM after 72 hrs by CellTiterGlo luciferase-based assay. In kind it is functional, cell-based.

`COc1ccc(C2=NN(c3ccccc3Cl)C(c3cccc(Cl)c3)C2)cc1` (stereo not drawn): the IC50 (in general, the concentration that gives 50% inhibition) was determined as 7.2 µM in data set [1] and 1.5 µM in the data set with HCT-116 [3]. The inhibition entry in data set [2] and in data set [4] was “inactive” each time.

As to `COc1ccccc1C1=NN(c2ccccc2Cl)C(c2cccc(Cl)c2)C1` (stereo not drawn), the IC50 in data set [1] came to 13.4 µM; in the data set on HCT-116 [3], 1.9 µM. In addition, the inhibition entry in data set [2] and in data set [4] was “inactive” throughout.

For the molecule `CC(C)(C)C1=NN(c2ccc(Cl)cc2)C(c2ccc3ccccc3c2)C1` (stereo not drawn), the inhibition entry in data set [2] and in data set [4] was “Active” each time. The molecule also displayed a half-maximal inhibitory concentration (IC50) with HCT-116 [3] of 12.7 µM.

On to `CC(C)(C)C1=NN(c2ccc(Cl)cc2)C(c2ccc(Cl)cc2)C1` (stereo not drawn), for which the results for the IC50 (in data set [1]; in the data set on HCT-116 [3]) were 19.3 µM and 17.3 µM, respectively. For the same molecule, the inhibition result in data set [2] and in data set [4] was “Active” throughout.

Take `COc1cccc(C2=NN(c3ccccc3Cl)C(c3ccccc3Cl)C2)c1` (stereo not drawn): the half-inhibitory concentration (IC50) in data set [1] was 13.6 µM; in the data set on HCT-116 [3] it was 2.5 µM. Also, the inhibition result in data set [2] and in data set [4] was “inactive” in each case. For the same molecule, the result in data set [5] was inactive.

With `COc1cccc(C2=NN(c3ccc(Cl)cc3)C(c3cccc(Cl)c3)C2)c1` (stereo not drawn), the inhibition result in data set [2] and in data set [4] was “inactive” in each case. In the data set with HCT-116 [3], this molecule displayed a concentration for half-maximal inhibition (IC50) of 18.5 µM.

As for `COc1ccc(C2=N[C@@H](c3ccc(Cl)cc3)[C@@H](c3ccc(Cl)cc3)N2C(=O)N2CCNC(=O)C2)c(OC(C)C)c1` [NUTLIN-3], the results for the concentration for half-maximal inhibition (IC50) (in data set [1]; in the data set with HCT-116 [3]) were 14.7 µM and 1.6 µM, respectively. The selectivity ratio in data set [6] is 9.

Consider `CCOc1ccccc1C1=NN(c2ccc(Cl)cc2)C(c2ccc(Cl)cc2)C1C(=O)N1CCOCC1` (stereo not drawn), for which the half-inhibitory concentration (IC50) stood at 8.4 µM in data set [1] and 8 µM in the data set with HCT-116 [3]. The inhibition entry in data set [2] and in data set [4] was “inactive” throughout.

`COc1ccc(C2=NN(c3cccc(Cl)c3)C(c3ccccc3Cl)C2)cc1` (stereo not drawn): the inhibition entry with HCT-116 [7] and with NCI-H1299 was “Active” in each case.

Regarding `CC(C)(C)C1=NN(c2ccc(Cl)cc2)C(c2ccc(Cl)cc2)C1C(=O)N1CCOCC1` (stereo not drawn), the IC50 worked out at 14.2 µM in data set [1] and 3.5 µM in the data set with HCT-116 [3]. The inhibition result in data set [2] and in data set [4] was “Active” each time.

As for `COc1ccccc1C1=NN(c2cccc(Cl)c2)C(c2cccc(Cl)c2)C1` (stereo not drawn), the 50% inhibitory concentration (IC50) in data set [1] came out at 11.7 µM; with HCT-116 [3], 1.6 µM. The inhibition entry in data set [2] and in data set [4] was “inactive” in each case.

`CC(C)(C)C1=NN(c2ccc(Cl)cc2)C(c2ccc(Cl)c(Cl)c2)C1` (stereo not drawn): the concentration for half-maximal inhibition (IC50) in data set [1] was 14.8 µM; with HCT-116 [3] it was 5.3 µM. The inhibition entry in data set [2] and in data set [4] was “Active” throughout.

Regarding `CC(C)(C)C1=NN(c2ccc(Br)cc2)C(c2ccc(Cl)cc2)C1` (stereo not drawn), the half-inhibitory concentration (IC50) in data set [1] worked out at 19.4 µM; in the data set with HCT-116 [3], 4.3 µM. Moreover, the inhibition result in data set [2] and in data set [4] was “Active” each time.
